Usually Ki stands for the dissociation constant of the complex between target and ligand, obtained from inhibition or displacement. Broadly, the EC50 is the concentration needed to bring the measured effect to its halfway point. Low values mean an effect from little substance, high ones a need for much substance. Usually Emax stands for the greatest response seen or fitted, relative to the assay's reference.

Where two headings read alike, the source gives them in different places.

The values that follow come from patent US9340542B2, “Propellane-based compounds and the use thereof” (Purdue Pharma L.P., priority 2013, dated 2016).

Test [1] deals with T1, μ-opioid receptor (Homo sapiens (Human), UniProt P35372). The experiment in a line: μ-opioid receptor radioligand dose-displacement binding assay ([3H]-diprenorphine). Particulars: binding affinity. The method, then: Radioligand dose-displacement binding assays for μ-opioid receptors used 0.3 nM [^3H]-diprenorphine (Perkin Elmer, Shelton, Conn.), with […] membrane protein/well in a final volume of 500 μl binding buffer (10 mM MgCl2, 1 mM EDTA, 5% DMSO, 50 mM HEPES, pH 7.4). Reactions were carried out in the absence or presence of increasing concentrations of unlabeled naloxone. All reactions were conducted in 96-deep well polypropylene plates for 2 hours at room temperature. Binding reactions were terminated by rapid filtration onto 96-well Unifilter GF/C filter plates (Perkin Elmer, Shelton, Conn.), presoaked in 0.5% polyethylenimine using a 96-well tissue harvester (Perkin Elmer, Shelton, Conn.) followed by performing three filtration washes with 500 μl of ice-cold binding buffer. Filter plates were subsequently dried at 50° C. for 2-3 hours. BetaScint scintillation cocktail (Perkin Elmer, Shelton, Conn.) was added (50 μl/well), and plates were counted using a Packard Top-Count for 1 min/well. The data were analyzed using the one-site competition curve fitting functions in GraphPad PRISM™ v. 3.0 or higher (San Diego, Calif.), or an in-house function for one-site competition curve-fitting.
(§1) In TABLE 1, binding affinity of certain Compounds of the Invention to the μ- and κ-opioid receptors was determined as described above.

In test [2] the target is T2, κ opioid receptor (Homo sapiens (Human), UniProt P41145). The test can be described thus: κ-opioid receptor radioligand dose-displacement binding assay ([3H]-U69,593). As to conditions: binding affinity. The method, then:
Membranes from HEK-293 cells, CHO or U-2 OS cells expressing the recombinant human κ opioid receptor (κ) were prepared by lysing cells in ice cold hypotonic buffer (2.5 mM MgCl2, 50 mM HEPES, pH 7.4) (10 mL/10 cm dish) followed by homogenization with a tissue grinder/Teflon pestle. Membranes were collected by centrifugation at 30,000×g for 15 min at 4° C. and pellets were resuspended in hypotonic buffer to a final concentration of 1-3 mg/mL. Protein concentrations were determined using the BioRad protein assay reagent with bovine serum albumen as standard. Aliquots of κ receptor membranes were stored at −80° C.
Radioligand dose displacement assays used 0.4 nM [^3H]-U69,593 (GE Healthcare, Piscataway, N.J.; 40 Ci/mmole) with 15 μg membrane protein (recombinant κ opioid receptor expressed in HEK 293 cells; in-house prep) in a final volume of 200 μl binding buffer (5% DMSO, 50 mM Trizma base, pH 7.4). Non-specific binding was determined in the presence of 10 μM unlabeled naloxone or U69,593. All reactions were performed in 96-well polypropylene plates for 1 hour at a temperature of about 25° C. Binding reactions were terminated by rapid filtration onto 96-well Unifilter GF/C filter plates (Perkin Elmer, Shelton, Conn.) presoaked in 0.5% polyethylenimine (Sigma). Harvesting was performed using a 96-well tissue harvester (Perkin Elmer, Shelton, Conn.) followed by five filtration washes with 200 μl ice-cold binding buffer. Filter plates were subsequently dried at 50° C. for 1-2 hours. Fifty μl/well scintillation cocktail (Perkin Elmer, Shelton, Conn.) was added and plates were counted in a Packard Top-Count for 1 min/well.
as §1

Test [3] concerns the target T2, κ opioid receptor. The test can be described thus: κ-opioid receptor [35S]GTPγS functional assay. It counts as biochemical. As to conditions: for EC50: GTPγS functional assay using U-2 OS cells; for Emax: maximal effect relative to U69,593, U-2 OS cells. The method, then:
Functional [^35S]GTPγS binding assays were conducted as follows. κ opioid receptor membrane solution was prepared by sequentially adding final concentrations of 0.026 μg/μl κ membrane protein (in-house), 10 μg/mL saponin, 3 μM GDP and 0.20 nM [^35S]GTPγS to binding buffer (100 mM NaCl, 10 mM MgCl2, 20 mM HEPES, pH 7.4) on ice. The prepared membrane solution (190 μl/well) was transferred to 96-shallow well polypropylene plates containing 10 μl of 20× concentrated stock solutions of agonist prepared in DMSO. Plates were incubated for 30 min at a temperature of about 25° C. with shaking. Reactions were terminated by rapid filtration onto 96-well Unifilter GF/B filter plates (Perkin Elmer, Shelton, Conn.) using a 96-well tissue harvester (Packard) and followed by three filtration washes with 200 μl ice-cold binding buffer (10 mM NaH2PO4, 10 mM Na2HPO4, pH 7.4). Filter plates were subsequently dried at 50° C. for 2-3 hours. Fifty μl/well scintillation cocktail (Perkin Elmer, Shelton, Conn.) was added and plates were counted in a Packard Top-Count for 1 min/well.
κ GTP EC50 is the concentration of a compound providing 50% of the maximal response for the compound at a κ receptor.
κ GTP Emax (%) is the maximal effect elicited by a compound relative to the effect elicited by U69,593.
(§2) In TABLE 2, activity response of certain Compounds of the Invention to the μ- and κ-opioid receptors was determined as described above for functional assays using U-2 OS cells.
For orientation: GTPγS is a poorly hydrolysed GTP analogue; its binding reports G protein activation.

For test [4], the target named is T1, μ-opioid receptor. The experiment in a line: μ-opioid receptor [35S]GTPγS functional assay. In kind it is biochemical. As to conditions: for EC50: GTPγS functional assay using U-2 OS cells; for Emax: maximal effect relative to DAMGO, U-2 OS cells. As for the experimental part:
[^35S]GTPγS functional assays were conducted using freshly thawed p-receptor membranes prepared in-house from a cell line expressing recombinant μ opioid receptor in a HEK-293, CHO or U-2 OS cell background, or purchased from a commercial source (Perkin Elmer, Shelton. Conn.; or DiscovRx, Fremont, Calif.). Assay reactions were prepared by sequentially adding the following reagents to binding buffer (100 mM NaCl, 10 mM MgCl2, 20 mM HEPES, pH 7.4) on ice (final concentrations indicated): membrane protein ([…]), saponin ([…]), GDP ([…]) and [^35S]GTPγS (0.20 nM; Perkin Elmer, Shelton, Conn.). The prepared membrane solution (190 μl/well) was transferred to 96-shallow well polypropylene plates containing 10 μl of 20× concentrated stock solutions of the agonist [D-Ala^2, N-methyl-Phe^4 Gly-ol^5]-enkephalin (DAMGO) prepared in dimethyl sulfoxide (DMSO). Plates were incubated for 30 min at about 25° C. with shaking. Reactions were terminated by rapid filtration onto 96-well Unifilter GF/B filter plates (Perkin Elmer, Shelton, Conn.) using a 96-well tissue harvester (Perkin Elmer, Shelton, Conn.) followed by three filtration washes with 200 μl of ice-cold wash buffer (10 mM NaH2PO4, 10 mM Na2HPO4, pH 7.4). Filter plates were subsequently dried at 50° C. for 2-3 hours. BetaScint scintillation cocktail (Perkin Elmer, Shelton, Conn.) was added (50 μl/well) and plates were counted using a Packard Top-Count for 1 min/well. Data were analyzed using the sigmoidal dose-response curve fitting functions in GraphPad PRISM v. 3.0, or an in-house function for non-linear, sigmoidal dose-response curve-fitting.
μ GTP EC50 is the concentration of a compound providing 50% of the maximal response for the compound at a […] receptor.
μ GTP Emax (%) is the maximal effect elicited by a compound relative to the effect elicited by DAMGO, a standard μ agonist. Generally, the μ GTP Emax (%) value measures the efficacy of a compound to treat or prevent pain or other Conditions.
as §2

Where [5] appears, read: read-out: Opioid Receptor Ki (nM) μ.

Regarding `COc1ccc2c(c1)[C@]13CCN(CC4CC4)C[C@]1(CC[C@@]1(C3)NC(=O)NC1=O)C2` [Compound 2, (3S,4aR,9,aR)-11-(cyclopropylmethyl)-6-methoxy-1,2,4,9-tetrahydrospiro[4a,9a-(ethanoiminomethano)fluorene-3,4′-imidazolidine]-2′,5′-dione], the values for the Ki at μ-opioid receptor [1] (setting [5]) and on κ opioid receptor [2] were 6250 ± 874 nM and 4760 ± 1110 nM, respectively.

With `COc1ccc2c(c1)[C@]13CCN(CC4CC4)C[C@]1(CC[C@]1(C3)NC(=O)NC1=O)C2` [Compound 3], the Ki on μ-opioid receptor [1] (read-out: Opioid Receptor Ki μ) was more than 20000 nM; at κ opioid receptor [2] it was 8410 ± 650 nM.

As for `COC(=O)c1cc2c([nH]c1=O)C[C@@]13CCN(CC4CC4)C[C@@]1(Cc1ccc(OC)cc13)C2` [Compound 5, (5aS,10bR)-methyl 14-(cyclopropylmethyl)-9-methoxy-2-oxo-2,5,6,11-tetrahydro-1H-10b,5a-(ethanoiminomethano)indeno[2,1-g]quinoline-3-carboxylate], the results for the Ki on μ-opioid receptor [1] (setting [5]) and on κ opioid receptor [2] were 9550 ± 1870 nM and 3600 ± 882 nM, respectively.

As to `COc1ccc2c(c1)[C@]13CCN(CC4CC4)C[C@@]1(C2)Cc1cc(C(N)=O)c(=O)[nH]c1C3` [Compound 6, (5aS,10bR)-14-(cyclopropylmethyl)-9-methoxy-2-oxo-2,5,6,11-tetrahydro-1H-10b,5a-(ethanoiminomethano)indeno[2,1-g]quinoline-3-carboxamide], the Ki at μ-opioid receptor [1] (setting [5]) turned out to be 15600 nM; on κ opioid receptor [2] it was 4280 ± 1090 nM.

On to `NC(=O)c1cc2c([nH]c1=O)C[C@@]13CCN(CC4CC4)C[C@@]1(Cc1ccc(O)cc13)C2` [Compound 7, (5aS,10bR)-14-(cyclopropylmethyl)-9-hydroxy-2-oxo-2,5,6,11-tetrabydro-1H-10b,5a-(ethanoiminomethano)indeno[2,1-g]quinoline-3-carboxamide], for which the EC50 on κ opioid receptor [3] came out at 0.57 ± 0.0854 µM; at μ-opioid receptor [4], 0.413 ± 0.0664 µM. Besides, the results for the Emax at κ opioid receptor [3] and on μ-opioid receptor [4] were 103 ± 5.21% and 19.3 ± 3.18%, respectively. The inhibition constant (Ki) on μ-opioid receptor [1] (setting [5]) stood at 770 ± 102 nM; at κ opioid receptor [2], 148 ± 39.8 nM.

As for `O=C1NC(=O)[C@@]2(CC[C@@]34Cc5ccc(O)cc5[C@@]3(CCN(CC3CC3)C4)C2)N1` [Compound 8, (3S,4aR,9aR)-11-(cyclopropylmethyl)-6-hydroxy-1,2,4,9-tetrahydrospiro[4a,9a-(ethanoiminomethano)fluorene-3,4′-imidazolidine]-2′,5′-dione], the EC50 on κ opioid receptor [3] was 0.384 ± 0.0369 µM; at μ-opioid receptor [4] it was 0.414 ± 0.0628 µM. Further, the Emax on κ opioid receptor [3] turned out to be 119 ± 4.41%; at μ-opioid receptor [4] it was 86.7 ± 1.67%. Further, the Ki worked out at 472 ± 93 nM on μ-opioid receptor [1] (setting [5]) and 72.5 ± 18.3 nM at κ opioid receptor [2].

Consider `O=C1NC(=O)[C@]2(CC[C@@]34Cc5ccc(O)cc5[C@@]3(CCN(CC3CC3)C4)C2)N1` [Compound 9, (3R,4aR,9aR)-11-(cyclopropylmethyl)-6-hydroxy-1,2,4,9-tetrahydrospiro[4a,9a-(ethanoiminomethano)fluorene-3,4′-imidazolidine]-2′,5′-dione], for which the EC50 was found to be 0.3188 ± 0.00138 µM at κ opioid receptor [3] and 0.309 ± 0.0363 µM on μ-opioid receptor [4]. For the same molecule, the Emax at κ opioid receptor [3] came out at 109 ± 7.09%; on μ-opioid receptor [4] it was 94 ± 3.06%. Moreover, the Ki on μ-opioid receptor [1] (setting [5]) came to 676 ± 74.1 nM; on κ opioid receptor [2] it was 148 ± 25.2 nM.
